The subject of one series is MEK1/2. Conditions: HT-29 cells, 0.3, 1 and 3 μM; previous study; cited from earlier work.
Series [1] is described as follows: In vivo mouse PK study, single IP injection. On the set-up: species or system male Swiss Albino mice. Conditions: mice, single IP 50 mg/kg.
A further series concerns SK-MEL-28 cells. Nature of the series: Antiproliferation. It counts as cell-based. Conditions: Homo sapiens, SK-MEL-28, 72 h, read-out: SK-MEL-28 GI50.

“Also recorded” adds a separate entry of the source.

For the compound `Cc1ncsc1-c1ccc(CNC(=O)[C@@H]2C[C@@H](O)CN2C(=O)[C@@H](NC(=O)CCCCCCCCCCNCCCONC(=O)c2ccc(F)c(F)c2Nc2ccc(I)cc2F)C(C)(C)C)cc1` [Compound 14, (2S,4R)-1-((S)-20-(tert-Butyl)-1-(3,4-difluoro-2-((2-fluoro-4-iodophenyl)amino)phenyl)-1,18-dioxo-3-oxa-2,7,19-triazahenicosan-21-oyl)-4-hydroxy-N-(4-(4-methylthiazol-5-yl)benzyl)pyrrolidine-2-carboxamide], the “MEK1/2 degradation (Western blot, words)” value with MEK1/2 is “significantly degrade MEK1/2 protein levels”. As for `Cc1ncsc1-c1ccc([C@H](C)NC(=O)[C@@H]2C[C@@H](O)CN2C(=O)[C@@H](NC(=O)CCCCCCCCCCCNCCCCONC(=O)c2ccc(F)c(F)c2Nc2ccc(I)cc2F)C(C)(C)C)cc1` [Compound 27, (2S,4R)-1-((S)-22-(tert-Butyl)-1-(3,4-difluoro-2-((2-fluoro-4-iodophenyl)amino)phenyl)-1,20-dioxo-3-oxa-2,8,21-triazatricosan-23-oyl)-4-hydroxy-N-((S)-1-(4-(4-methylthiazol-5-yl)phenyl)ethyl)pyrrolidine-2-carboxamide], in series [1], the “clearance comparison” value is reported as “cleared more slowly than compound 24”. In addition, the “plasma exposure comparison” value in series [1] (8 h period, 50 mg/kg) was “better plasma exposure than compound 24; also recorded: higher than that of the previously published MEK degrader 3”. Besides, in series [1] (no clinical signs or adverse effects observed), the “tolerability” value is on record as “very well tolerated”. By GI50 is commonly meant the concentration that inhibits growth by half. As to `CCCS(=O)(=O)Nc1ccc(F)c(C(=O)c2c[nH]c3ncc(-c4ccc(Cl)cc4)cc23)c1F` [PLX4032], the GI50 in the series on SK-MEL-28 cells is roughly 0.1 µM.
